Measured values as given in PubChem BioAssay AID2060335 (Molecular Pharmacology Branch, DTP, NCI, 2025).

Tested on: DU-145 multicell spheroids with HUVEC/MSC, viability
Test: Anticancer human tumor DU-145 cell line growth inhibition [IpAb];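 note: spheroids exposed to agents for seven days before measurement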;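 for viability, T/C: percent of DMSO vehicle control viability so 100% = untreated level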
Details: for IC50: curve of first compound; for viability, T/C: stronger effect = lower value; active = viability on the fitted dose curve at most 10% of control; inactive = the rest
In short: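 Combinations with ipatasertib or abemaciclib were tested on tumour spheroids holding HUVEC (25%) and MSC (15%) alongside 60% malignant cells. Top concentration was at or near clinical Cmax (10 microM if undefined), descending in half-log steps.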

[1] = second compound 0.01 µM, first compound 0.0316 µM
[2] = second compound 0.01 µM, first compound 0.1 µM
[3] = second compound 0.0316 µM, first compound 0.0316 µM
[4] = second compound 0.0316 µM, first compound 0.1 µM
[5] = second compound 0.1 µM, first compound 0.000316 µM
[6] = second compound 0.1 µM, first compound 0.001 µM
[7] = second compound 0.1 µM, first compound 0.00316 µM
[8] = second compound 0.1 µM, first compound 0.01 µM
[9] = second compound 0.1 µM, first compound 0.0316 µM
[10] = second compound 0.1 µM, first compound 0.1 µM
[11] = second compound 0.316 µM, first compound 0.000316 µM
[12] = second compound 0.316 µM, first compound 0.001 µM
[13] = second compound 0.316 µM, first compound 0.00316 µM
[14] = second compound 0.316 µM, first compound 0.01 µM
[15] = second compound 0.316 µM, first compound 0.0316 µM
[16] = second compound 0.316 µM, first compound 0.1 µM
[17] = second compound 1 µM, first compound 0.000316 µM
[18] = second compound 1 µM, first compound 0.001 µM
[19] = second compound 1 µM, first compound 0.00316 µM
[20] = second compound 1 µM, first compound 0.01 µM
[21] = second compound 1 µM, first compound 0.0316 µM
[22] = second compound 1 µM, first compound 0.1 µM
[23] = second compound 0.1 µM, first compound 0.316 µM
[24] = second compound 0.1 µM, first compound 1 µM
[25] = second compound 0.1 µM, first compound 3.16 µM
[26] = second compound 0.1 µM, first compound 10 µM
[27] = second compound 0.316 µM, first compound 0.316 µM
[28] = second compound 0.316 µM, first compound 1 µM
[29] = second compound 0.316 µM, first compound 3.16 µM
[30] = second compound 0.316 µM, first compound 10 µM
[31] = second compound 1 µM, first compound 0.316 µM
[32] = second compound 1 µM, first compound 1 µM
[33] = second compound 1 µM, first compound 3.16 µM
[34] = second compound 1 µM, first compound 10 µM
[35] = second compound 3.16 µM, first compound 0.0316 µM
[36] = second compound 3.16 µM, first compound 0.1 µM
[37] = second compound 10 µM, first compound 0.0316 µM
[38] = second compound 10 µM, first compound 0.1 µM

Cn1ncnc1[C@H]1c2n[nH]c(=O)c3cc(F)cc(c23)N[C@@H]1c1ccc(F)cc1 + CCN1CCN(Cc2ccc(Nc3ncc(F)c(-c4cc(F)c5nc(C)n(C(C)C)c5c4)n3)nc2)CC1
> 100 nM: IC50 (second compound 0.01 µM) | IC50 (second compound 0.0316 µM) | IC50 (second compound 0.1 µM) | IC50 (second compound 0.316 µM) | IC50 (second compound 1 µM)
inactive: viability, T/C (second compound 0.01 µM, first compound 0.000316 µM) 99.7% | viability, T/C (second compound 0.01 µM, first compound 0.001 µM) 102% | viability, T/C (second compound 0.01 µM, first compound 0.00316 µM) 96.8% | viability, T/C (second compound 0.01 µM, first compound 0.01 µM) 89% | viability, T/C [1] 88.5% | viability, T/C [2] 81.6% | viability, T/C (second compound 0.0316 µM, first compound 0.000316 µM) 94.2% | viability, T/C (second compound 0.0316 µM, first compound 0.001 µM) 95.7% | viability, T/C (second compound 0.0316 µM, first compound 0.00316 µM) 84.5% | viability, T/C (second compound 0.0316 µM, first compound 0.01 µM) 79.1% | viability, T/C [3] 84.1% | viability, T/C [4] 77.4% | viability, T/C [5] 90% | viability, T/C [6] 84.4% | viability, T/C [7] 78.3% | viability, T/C [8] 73.4% | viability, T/C [9] 82.1% | viability, T/C [10] 76% | viability, T/C [11] 81.9% | viability, T/C [12] 78% | viability, T/C [13] 75.3% | viability, T/C [14] 73.3% | viability, T/C [15] 66.7% | viability, T/C [16] 64.7% | viability, T/C [17] 67.9% | viability, T/C [18] 75.3% | viability, T/C [19] 63.3% | viability, T/C [20] 65.8% | viability, T/C [21] 63.7% | viability, T/C [22] 61.2%

Cn1nccc1Nc1nccc(-c2ccn(C(CO)c3ccc(Cl)c(F)c3)c(=O)c2)n1 (stereo not given) + CC(C)NCC(C(=O)N1CCN(c2ncnc3c2C(C)CC3O)CC1)c1ccc(Cl)cc1
< 31.6 nM: IC50 (second compound 0.316 µM) | IC50 (second compound 1 µM) | IC50 (second compound 3.16 µM) | IC50 (second compound 10 µM)
> 10000 nM: IC50 (second compound 0.1 µM)
inactive: viability, T/C [9] 65.6% | viability, T/C [10] 57.1% | viability, T/C [23] 60% | viability, T/C [24] 76.8% | viability, T/C [25] 99% | viability, T/C [26] 66.2% | viability, T/C [15] 42.6% | viability, T/C [16] 36.2% | viability, T/C [27] 35.8% | viability, T/C [28] 45.7% | viability, T/C [29] 66.3% | viability, T/C [30] 60.3% | viability, T/C [21] 27.4% | viability, T/C [22] 24.6% | viability, T/C [31] 26.2% | viability, T/C [32] 30.7% | viability, T/C [33] 42.3% | viability, T/C [34] 47.6% | viability, T/C [35] 18.7% | viability, T/C [36] 16.5% | viability, T/C (second compound 3.16 µM, first compound 0.316 µM) 19.3% | viability, T/C (second compound 3.16 µM, first compound 1 µM) 20.7% | viability, T/C (second compound 3.16 µM, first compound 3.16 µM) 27.6% | viability, T/C (second compound 3.16 µM, first compound 10 µM) 36.8% | viability, T/C [37] 13.4% | viability, T/C [38] 11.6% | viability, T/C (second compound 10 µM, first compound 0.316 µM) 11.7% | viability, T/C (second compound 10 µM, first compound 1 µM) 14.3% | viability, T/C (second compound 10 µM, first compound 3.16 µM) 21.7% | viability, T/C (second compound 10 µM, first compound 10 µM) 24.6%

Cn1ncc(Cl)c1-c1cc(C(=O)NC(CN)Cc2cccc(F)c2)sc1Cl (stereo not given) + CCN1CCN(Cc2ccc(Nc3ncc(F)c(-c4cc(F)c5nc(C)n(C(C)C)c5c4)n3)nc2)CC1
active: viability, T/C (second compound 0.01 µM, first compound 10 µM) 1.16% | viability, T/C (second compound 0.0316 µM, first compound 3.16 µM) 14% | viability, T/C (second compound 0.0316 µM, first compound 10 µM) 0.22% | viability, T/C [25] 13.4% | viability, T/C [26] 0.82% | viability, T/C [30] 0.85% | viability, T/C [34] 0.53%
79.6 nM: IC50 (second compound 0.316 µM)
inactive: viability, T/C [1] 84.7% | viability, T/C [2] 56.3% | viability, T/C (second compound 0.01 µM, first compound 0.316 µM) 30.6% | viability, T/C (second compound 0.01 µM, first compound 1 µM) 22.5% | viability, T/C (second compound 0.01 µM, first compound 3.16 µM) 13.7% | viability, T/C [3] 74.1% | viability, T/C [4] 48.9% | viability, T/C (second compound 0.0316 µM, first compound 0.316 µM) 29.6% | viability, T/C (second compound 0.0316 µM, first compound 1 µM) 19.6% | viability, T/C [9] 64.4% | viability, T/C [10] 47.8% | viability, T/C [23] 29.4% | viability, T/C [24] 19% | viability, T/C [15] 60% | viability, T/C [16] 48.5% | viability, T/C [27] 32.8% | viability, T/C [28] 23.4% | viability, T/C [29] 16.4% | viability, T/C [21] 60.3% | viability, T/C [22] 52% | viability, T/C [31] 50.2% | viability, T/C [32] 30.9% | viability, T/C [33] 25.8%
80.3 nM: IC50 (second compound 0.1 µM)
96.7 nM: IC50 (second compound 0.0316 µM)
135 nM: IC50 (second compound 0.01 µM)
190 nM: IC50 (second compound 1 µM)

CC(C)n1nc(-c2ccc3oc(N)nc3c2)c2c(N)ncnc21 + CC(C)NCC(C(=O)N1CCN(c2ncnc3c2C(C)CC3O)CC1)c1ccc(Cl)cc1
0.905 nM: IC50 (second compound 0.1 µM)
active: viability, T/C [10] 9.34% | viability, T/C [15] 9.74% | viability, T/C [16] 7.89% | viability, T/C [20] 8.57% | viability, T/C [21] 7.4% | viability, T/C [22] 6.44% | viability, T/C (second compound 3.16 µM, first compound 0.00316 µM) 9.92% | viability, T/C (second compound 3.16 µM, first compound 0.01 µM) 6.7% | viability, T/C [35] 6.17% | viability, T/C [36] 5.92% | viability, T/C (second compound 10 µM, first compound 0.00316 µM) 7.9% | viability, T/C (second compound 10 µM, first compound 0.01 µM) 6.04% | viability, T/C [37] 5.82% | viability, T/C [38] 5.09%
< 0.316 nM: IC50 (second compound 0.316 µM) | IC50 (second compound 1 µM) | IC50 (second compound 3.16 µM) | IC50 (second compound 10 µM)
inactive: viability, T/C [5] 64.2% | viability, T/C [6] 48.1% | viability, T/C [7] 32.4% | viability, T/C [8] 18.1% | viability, T/C [9] 12.2% | viability, T/C [11] 49.2% | viability, T/C [12] 32.3% | viability, T/C [13] 22.9% | viability, T/C [14] 13.5% | viability, T/C [17] 29% | viability, T/C [18] 23.1% | viability, T/C [19] 14% | viability, T/C (second compound 3.16 µM, first compound 0.000316 µM) 18.6% | viability, T/C (second compound 3.16 µM, first compound 0.001 µM) 14.2% | viability, T/C (second compound 10 µM, first compound 0.000316 µM) 14.1% | viability, T/C (second compound 10 µM, first compound 0.001 µM) 14.2%
